Patent US20220023317A1, “PREVENTING OR MITIGATING CHEMOTHERAPY INDUCED ALOPECIA USING VITAMIN D” (Berg LLC, priority 2013, published 2022)
Read-outs that look alike come from different tables or passages of the source.

What was measured:
[1] = test system: Sprague-Dawley or Long Evans rats; assay: Second CIA study, calcitriol 1, 2 or 3 μg/mL; type: in vivo, rat
Experimental: CIA was administered topically at concentrations of 1, 2, or 3 μg/mL on Days 5 to 10 followed by administration of various chemotherapeutic agents (etoposide; cyclophosphamide; doxorubicin and cyclophosphamide; cytosine beta-D arabinofurosamine; cytosine beta-D arabinofurosamine and doxorubicin; and paclitaxel).

[2] = test system: NCI-ES-0808; assay: Cell growth / viability assay; type: cell-based
[3] = test system: MCF-7; assay: Cell growth / viability assay; type: cell-based
[4] = test system: HEKa cells; assay: Protection of HEKa cells by calcitriol against chemotherapeutic drugs; type: cell-based, human
Experimental: These include: erlotinib (Tarceva), an EGFR Tyr kinase inhibitor; gefutubib (Iressa), an EGFR Tyr kinase inhibitor; sorafenib, inhibitor of several Tyr kinases (Raf, VEGF-R2, c-kit, PDGR-R); Dasatinib, a BCR/ABL Tyr kinase inhibitor; and staurosporin, a relatively nonspecific kinase inhibitor.
The drug treatment period was usually three days. At the end of the three days, the background OD of the 96-well plate was read at 280 nm, before 20 μL of the “Substrate Cell Titer 96 Aqueous One Solution Reagent” (Promega) was added to each well. The plate was returned to the 37° C. incubator, and its OD at 490 nm was read each hour until an OD of approximately 1.5 was reached. The net OD increase was calculated by subtracting the pre-substrate OD reading.
The impact of the drug on the cells was calculated by comparing the OD at different concentrations in relation to the OD of the control wells (without the drug).

[5] = test system: HEKa cells; assay: 2-D gel electrophoresis proteomic analysis of calcitriol-treated HEKa; type: cell-based, human; conditions: 0.1 μg/mL
Experimental: The cell pellets were then analyzed using proteomic methods, such as 2-D gel and Western blot analysis. […] In all, analysis of about 458 protein spots in the comparative study was performed, comparing the control sample against the 3-, 6-, and 24-hour treatment samples. Six spots showing statistically significant differential changes were identified. These spots were excised, and their protein contents subjected to sequence identification by trypsin digestion and mass spectrometry characterization.

[6] = test system: BALB/c mice; conditions: cited from earlier work
[7] = test system: HEKa cells; assay: Pretreatment of cells with calcitriol before chemotherapy drugs; type: cell-based, human
Experimental: Then these pretreated cells were utilized to set up the cell based assay. […] Three commonly used chemotherapy drugs (doxorubicin, cisplatin and erlotinib) were selected to evaluate calcitriol treated cells. […] In these experiments, the commercial drugs were serially diluted, starting at a concentration 4-times higher than the final desired concentration for cell incubation. […] The assay was carried out according to the previously described method in order to provide consistency and allow direct comparison. The result was based upon measurement of the total number of viable cells. […] Thus, a topical application of calcitriol could be applied at the same time as the systemic delivery of the chemotherapy. A staged application is not required.

[8] = test system: MIAC51; assay: Cure / survival rate of chloroleukemic rats after chemotherapy; type: in vivo, rat; conditions: for Cured (number of rats): of 40
Experimental: On day 5 after birth all rats received 1×105 MIAC51 intraperitoneally in 0.1 mL of serum free (SF) RPMI. MIAC51 were cultured in RPMI 1640 supplemented with L-glutamine and 10% fetal bovine serum at […] in a 5% CO2, 100% humidity incubator. Cells were grown to 50% confluency (1.5×106 mL) collected in 50 mL conical tubes, centrifuged at 600 g for 10 minutes at room temperature and resuspended in SF-RPMI at a concentration of 1×10^6/mL prior to injection.

[9] = test system: Long Evans and Sprague Dawley rats
Experimental: Specifically, Long Evans and Sprague Dawley rats with pups were purchased from Harlan Laboratories, Inc. They were housed and fed according to applicable animal handling rules and regulations. Pups were allowed to acclimate for 48 hours prior to the start of experiments. […] Rats were isolated from their littermates and mother for 6-hour periods of time. Subsequently, the treated area was cleaned with soap and water and pups were returned to their litters. On day 13, rats either received etoposide (1.5 mg/kg daily for 3 days) or cyclophosphamide (CTX) (37.5 mg/kg once) or combination cyclophosphamide (35 mg/kg once) and doxorubicin (2.5 mg/kg daily for 3 days). All chemotherapies were purchased from Sigma and were given intraperitoneally (i.p.) in a total volume of 0.1 mL. Alopecia was recorded 10 days after the last dose of chemotherapy.

[10] = test system: EMT-6 murine breast tumor; conditions: male mice, topical calcitriol before i.p. cyclophosphamide; cited from earlier work
[11] = test system: C57BL/6 mice; conditions: topical calcitriol; cited from earlier work
[12] = ADM + paclitaxel + etoposide, after two rounds
[13] = CTX + ADM + ARA-C, after two rounds
[14] = CTX + paclitaxel + etoposide, after two rounds
[15] = CTX, after two rounds of chemotherapy

C=C1/C(=C\C=C2/CCC[C@]3(C)[C@@H]([C@H](C)CCCC(C)(C)O)CC[C@@H]23)C[C@@H](O)C[C@@H]1O [Calcitriol, (1a.3B.5Z.7E)-9,10-secocholesta-5,7,10(19)-triene-1,3,25-triol]
extent of hair growth ([1]; 1 μg/mL): hair growth was limited to the treated area
extent of hair growth ([1]; 3 μg/mL): hair growth was also observed on the dorsal region
protection against CIA ([1]; 1 to 3 μg/mL applied for 6 hours, all chemotherapeutic agents tested): 100%
effect on cure rate with cyclophosphamide ([1]; chloroleukemia induced with MIAC51): did not affect the cure rate
protection from CIA, 6-hour exposure ([1]; topical, Days 5 to 10): complete protection
protection from CIA, 1.5 hour exposure ([1]; topical, Days 5 to 10): no protection
effect of calcitriol on cell growth [2]: no significant growth promoting or growth inhibiting effects
effect of calcitriol on cytotoxic effect of Doxorubicin [2]: did not appear to appreciably alter
effect of calcitriol on cytotoxic effect of Doxorubicin [3]: did not appear to appreciably alter
response to doxorubicin, cisplatin, erlotinib after calcitriol exposure ([3]; 0.1 μg/mL calcitriol for two passages): did not alter
concentrations giving growth inhibition ([3]; high concentrations): > 0.5 µg/mL
concentrations giving growth stimulation ([3]; low concentrations): 0.05 to 0.25 µg/mL
protective effect against 5-FU ([4]; 0.1 μg/mL calcitriol): mild protective effect
protective effect against doxorubicin ([4]; 0.1 μg/mL calcitriol): did not appear to provide a significant protective effect
protective effect against gemcitabine ([4]; 0.1 μg/mL calcitriol): mild protective effect
protective effect against irinotecan ([4]; 0.1 μg/mL calcitriol): positive protective effect
protective effect against paclitaxel ([4]; 0.1 μg/mL calcitriol): some protective effects
protective effect against tamoxifen ([4]; 0.1 μg/mL calcitriol): weak
interaction (synergy) between calcitriol and drugs tested ([4]; 0.1 μg/mL calcitriol premixed with 15 drugs, three days): no interaction
protection against alkylating agents cisplatin and carboplatin ([4]; 0.1 μg/mL calcitriol, low dosage levels): moderate level of protection
protective effect against kinase inhibitor drugs ([4]; 0.1 μg/mL calcitriol, erlotinib, gefitinib, sorafenib, dasatinib, staurosporin at low drug dosage): provided certain growth stimulation and protected the HEKa cells
S100 A9 (Calprotectin) Response ([5]; full cell: down at 6 and 24 hours): down at 6
Keratin 17 Response ([5]; full cell: down at 24 hours): down at
Glutathione S-transferase (GST) Response ([5]; full cell: up at 3, 6, and 24 hours): up at 3, 6,
protective effect in tumor-bearing male mice ([6]; injected with EMT-6 murine breast tumor cells): diminished
degree of CIA ([6]; male mice, topical 5 days prior to i.p. cyclophosphamide): significantly reduced the degree of CIA in a dose-dependent manner
HEKa growth after prolonged calcitriol exposure ([7]; 0.1 μg/mL calcitriol, two cell passages): stopped growing
chemoprotection, pre-treatment group vs simultaneous treatment group ([7]; 0.1 μg/mL, doxorubicin, cisplatin, erlotinib): nearly identical
% cured / survival rate [8, 12]: 80%
Cured (number of rats) [8, 12]: 32
% cured / survival rate [8, 13]: 78%
Cured (number of rats) [8, 13]: 31
% cured / survival rate ([8]; CTX + ADM, after two rounds): 50%
Cured (number of rats) ([8]; CTX + ADM, after two rounds): 20
% cured / survival rate [8, 14]: 83%
Cured (number of rats) [8, 14]: 33
% cured / survival rate [8, 15]: 25%
Cured (number of rats) [8, 15]: 10
effect on efficacy of the chemotherapy agents ([8]; calcitriol 2 μg/mL): did not affect the efficacy of the chemotherapy agents
protection from etoposide-induced alopecia ([9]; 0.1 μg of calcitriol topical for 6 hours, daily x6, etoposide 1.5 mg/kg x3): partial localized protection
protection from cyclophosphamide-induced alopecia ([9]; 0.3 μg calcitriol topical): full body protection
protection from etoposide-induced alopecia ([9]; 0.3 μg calcitriol topical): total body protection
rate of tumor growth vs either agent alone [10]: greater reduction in the rate of tumor growth
follicular apoptosis induced by cyclophosphamide [11]: significantly diminish the degree of follicular apoptosis
